The source of these data is PMC6015718, “Effect of Polyvalence on the Antibacterial Activity of a Synthetic Peptide Derived from Bovine Lactoferricin against Healthcare-Associated Infectious Pathogens” (BioMed Research International, 2018).

Read-outs that look alike come from different tables or passages of the source. Positions of bridges follow the written chain, without caps; N, C: chain ends. Non-standard residues stand in square brackets, D forms with d. Residues, ends and D or L forms follow the SMILES beside them. Chains are numbered I, II in the order given. No end group written: not given here. Ahx = NCCCCCC(=O)O Where only a bound is given, the exact number is not on record here.

Holding throughout (format): cell-based
Series [1] deals with Staphylococcus aureus ATCC 25923 (sensitive). From the text: (§1) All microorganisms were purchased from the American Type Culture Collection (ATCC). To determine the antibacterial activity of synthetic peptides against HCAI bacteria, the Staphylococcus aureus strains ATCC 25923 and ATCC 33591 were employed as sensitive and resistant strains, respectively, of a Gram-positive microorganisms species, and Klebsiella pneumoniae ATCC 13883 and ATCC 700603 as sensitive and resistant strains of a Gram-negative species.
(§2) To determine the MBC, an aliquot from each well of the MIC assay was spread onto MHA. After 18 h at 37°C, the concentration that inhibited bacterial growth was determined. Each of these tests was performed four times. MBC was defined as the lowest concentration of peptide that reduced the number of bacteria by 99.9% in vitro [12].

In series [2] the test system is Klebsiella pneumoniae ATCC 13883 (sensitive).
Source text: as §1, §2

In series [3] the test system is Klebsiella pneumoniae ATCC 700603 (resistant).
Source text: as §1, §2

The next series has as its system human erythrocytes. The series can be described thus: Haemolytic activity. The note with it: 6.25-100 μM peptide; human erythrocytes 2% haematocrit in PBS, 2 h 37°C, OD492; n = 2. As for the experimental part:
Human erythrocytes collected from the blood samples of healthy humans were harvested by centrifugation for 7 min at 162 ×g and washed three times in phosphate-buffered saline (PBS). The erythrocytes (2% haematocrit in PBS) were incubated with peptide molecules at several concentrations (6.25, 12.5, 25, 50, and 100 μM), for 2 h at 37°C. PBS was used as a negative control, and sterile distilled water was used as a positive control for haemolysis (100% of haemolysis). The plate was subsequently centrifuged at 1459 ×g for 10 min at 4°C. Aliquots of the supernatants of each well (75 μL) were carefully transferred to a new sterile 96-well plate, and haemolytic activity was evaluated by measuring the OD492 using an Asys Expert Plus Microplate reader. The experiments were performed in duplicate, and peptide haemolysis activity was calculated.
Lastly, to evaluate the effects of the peptides on normal human erythrocytes, their haemolysis activity was investigated (Figure 6). The percentage of haemolytic activity on human red blood cells after 2 hours was determined via the standard microtitre dilution method. The peptide concentration is reported as μM.

In series [4] the test system is Staphylococcus aureus ATCC 25923 (sensitive).
Source text: as §1
(§3) The antibacterial activity assay for peptides and controls was performed according to the National Committee for Clinical Laboratory Standards method M7-A7 [11]. MIC and MBC values were determined using a broth microdilution and growth inhibition method with some modification. Briefly, MIC assays were performed by liquid inhibition growth assay in an untreated sterile 96-well flat-bottom tissue culture plate. Bacteria were cultured overnight on Mueller-Hinton agar (MHA). Three colonies were transferred to 8 mL of Mueller-Hinton broth (MHB) and incubated at 37°C until the mid-exponential phase of growth. The turbidity of the cultures was measured and adjusted spectrophotometrically to McFarland standard 0.5, then diluted to a final concentration of […]. Synthetic antibacterial peptide candidate stock solutions were diluted to final concentrations per well of 200, 100, 50, 25, 12.5, and 6.25 μM. […]
(§4) Wells containing MHB with bacterial inoculum only served as bacterial growth controls. Additional controls included MHB alone and MHB with ciprofloxacin (CIP) (2 μg/mL) and bacteria as a positive control. The microplate was incubated for 24 h at 37°C, and growth inhibition was examined by monitoring the optical density at 620 nm (OD620). MIC was defined as the lowest peptide concentration that inhibited bacteria growth >90%.
The source holds these as a separate data set.

Series [5] relates to Klebsiella pneumoniae ATCC 13883 (sensitive).
Source text: as §1, §3, §4
This is another data set of the same source.

Series [6] deals with Staphylococcus aureus ATCC 33591 (resistant).
Source text: as §1, §3, §4

Series [7] concerns Klebsiella pneumoniae ATCC 700603 (resistant).
Source text: as §1, §3, §4
This is another data set of the same source.

Series [8] concerns Staphylococcus aureus ATCC 33591 (resistant).
Source text: as §1, §2
The source holds these as a separate data set.

Regarding RRWQWR-NH2 [Motif], the minimal bactericidal concentration (MBC) (as a rule, the smallest concentration meeting the test's criterion for killing) is above 200 µM in series [1] (ATCC 25923, 18 h); above 200 µM in [2] (ATCC 13883, 18 h); above 200 µM in series [3] (ATCC 700603, 18 h). The “haemolysis activity over the concentrations tested” value with human erythrocytes is listed as “no haemolysis activity”.

As to RWQWRWQWR [Palindromic], the MIC – broadly, the smallest concentration in the dilution series that meets the test's criterion for growth inhibition – in [4] (ATCC 25923, 24 h) stood at 50 µM; in series [5] (ATCC 13883, 24 h), 50 µM; in series [6] (ATCC 33591, 24 h) it was 6.25 µM; in series [7] (ATCC 700603, 24 h), 50 µM. Besides, the MBC in [1] (ATCC 25923, 18 h) is on record as 100 µM; in series [2] (ATCC 13883, 18 h), 100 µM; in series [8] (ATCC 33591, 18 h), 50 µM; in series [3] (ATCC 700603, 18 h) it was 100 µM.

`N=C(N)NCCC[C@H](NC(=O)[C@H](Cc1c[nH]c2ccccc12)NC(=O)[C@H](CCC(N)=O)NC(=O)[C@H](Cc1c[nH]c2ccccc12)NC(=O)[C@H](CCCNC(=N)N)NC(=O)[C@@H](N)CCCNC(=N)N)C(=O)NCCCC[C@H](NC(=O)[C@H](CCCNC(=N)N)NC(=O)[C@H](Cc1c[nH]c2ccccc12)NC(=O)[C@H](CCC(N)=O)NC(=O)[C@H](Cc1c[nH]c2ccccc12)NC(=O)[C@H](CCCNC(=N)N)NC(=O)[C@@H](N)CCCNC(=N)N)C(=O)NCCCCCC(=O)N[C@@H](CSSC[C@H](NC(=O)CCCCCNC(=O)[C@H](CCCCNC(=O)[C@H](CCCNC(=N)N)NC(=O)[C@H](Cc1c[nH]c2ccccc12)NC(=O)[C@H](CCC(N)=O)NC(=O)[C@H](Cc1c[nH]c2ccccc12)NC(=O)[C@H](CCCNC(=N)N)NC(=O)[C@@H](N)CCCNC(=N)N)NC(=O)[C@H](CCCNC(=N)N)NC(=O)[C@H](Cc1c[nH]c2ccccc12)NC(=O)[C@H](CCC(N)=O)NC(=O)[C@H](Cc1c[nH]c2ccccc12)NC(=O)[C@H](CCCNC(=N)N)NC(=O)[C@@H](N)CCCNC(=N)N)C(N)=O)C(N)=O` [Tetrameric] (I: H-RRWQWRK[Ahx]C-NH2 / II: H-RRWQWRK[Ahx]C-NH2 / III: H-RRWQWR / IV: H-RRWQWR; amide I:7-III:C, II:7-IV:C; disulfide I:9-II:9): the MIC in series [4] (ATCC 25923, 24 h) was 6.25 µM; in [4] (S. aureus ATCC 25923 sensitive, MHB, 24 h 37°C, OD620, lowest concentration inhibiting growth >90%, average of four independent experiments in duplicate), 29 µg/mL; in series [4] (S. aureus ATCC 25923 sensitive, MHB, 24 h 37°C, OD620, lowest concentration inhibiting growth >90%, average of four independent experiments in duplicate, listed as tetrameric) it was at least 29 µg/mL; in [4] (S. aureus ATCC 25923 sensitive, value in parentheses, MHB, 24 h 37°C, OD620, >90% inhibition, average of four independent experiments in duplicate), at least 6.25 µM; in series [5] (ATCC 13883, 24 h), 6.25 µM; in series [5] (K. pneumoniae ATCC 13883 sensitive, MHB, 24 h 37°C, OD620, >90% inhibition, average of four independent experiments in duplicate), 29 µg/mL. Further, the minimum inhibitory concentration (MIC) in [5] (K. pneumoniae ATCC 13883 sensitive, MHB, 24 h 37°C, OD620, >90% inhibition, average of four independent experiments in duplicate, listed as tetrameric) is on record as at least 29 µg/mL; in series [5] (K. pneumoniae ATCC 13883 sensitive, value in parentheses, MHB, 24 h 37°C, OD620, >90% inhibition) it was ≥ 6,25 µM; in series [6] (ATCC 33591, 24 h) it was 12.5 µM; in series [6] (S. aureus ATCC 33591 resistant, MHB, 24 h 37°C, OD620, >90% inhibition, average of four independent experiments in duplicate), 57 µg/mL; in series [6] (S. aureus ATCC 33591 resistant, MHB, 24 h 37°C, OD620, >90% inhibition, average of four independent experiments in duplicate, listed as tetrameric), at least 57 µg/mL; in series [6] (S. aureus ATCC 33591 resistant, value in parentheses, MHB, 24 h 37°C, OD620, >90% inhibition), at least 12.5 µM. In addition, the MIC in [7] (ATCC 700603, 24 h) is 12.5 µM; in [7] (K. pneumoniae ATCC 700603 resistant, MHB, 24 h 37°C, OD620, >90% inhibition, average of four independent experiments in duplicate), 57 µg/mL; in [7] (K. pneumoniae ATCC 700603 resistant, MHB, 24 h 37°C, OD620, >90% inhibition, average of four independent experiments in duplicate, listed as tetrameric) it was at least 57 µg/mL; in [7] (K. pneumoniae ATCC 700603 resistant, value in parentheses, MHB, 24 h 37°C, OD620, >90% inhibition) it was ≥ 12,5 µM. Also, the “concentration at which antibacterial activity was displayed (dose-response profile)” value in series [4] (S. aureus sensitive strain, Figure 2) is at least 29 µg/mL. Moreover, the minimum bactericidal concentration (MBC) is on record as 12.5 µM in series [1] (ATCC 25923, 18 h); 57 µg/mL in [1] (S. aureus ATCC 25923 sensitive, MHA, 18 h 37°C, 99.9% reduction, average of four independent experiments); at least 57 µg/mL in series [1] (S. aureus ATCC 25923 sensitive, MHA, 18 h 37°C, 99.9% reduction, average of four independent experiments, listed as tetrameric); at least 12.5 µM in series [1] (S. aureus ATCC 25923 sensitive, value in parentheses, MHA, 18 h 37°C, 99.9% reduction); 25 µM in [2] (ATCC 13883, 18 h); 115 µg/mL in series [2] (K. pneumoniae ATCC 13883 sensitive, MHA, 18 h 37°C, 99.9% reduction). Besides, the MBC in [2] (K. pneumoniae ATCC 13883 sensitive, MHA, 18 h 37°C, 99.9% reduction, listed as tetrameric) is on record as at least 115 µg/mL; in series [2] (K. pneumoniae ATCC 13883 sensitive, value in parentheses, MHA, 18 h 37°C, 99.9% reduction), at least 25 µM; in [8] (ATCC 33591, 18 h), 12.5 µM; in [8] (S. aureus ATCC 33591 resistant, MHA, 18 h 37°C, 99.9% reduction) it was 57 µg/mL; in [8] (S. aureus ATCC 33591 resistant, MHA, 18 h 37°C, 99.9% reduction, listed as tetrameric) it was at least 57 µg/mL; in [8] (S. aureus ATCC 33591 resistant, value in parentheses, MHA, 18 h 37°C, 99.9% reduction), at least 12.5 µM. Also, the MBC in [3] (ATCC 700603, 18 h) is reported as 25 µM; in series [3] (K. pneumoniae ATCC 700603 resistant, MHA, 18 h 37°C, 99.9% reduction), 115 µg/mL; in [3] (K. pneumoniae ATCC 700603 resistant, MHA, 18 h 37°C, 99.9% reduction, listed as tetrameric), at least 115 µg/mL; in series [3] (K. pneumoniae ATCC 700603 resistant, value in parentheses, MHA, 18 h 37°C, 99.9% reduction), at least 25 µM. Moreover, the “MBC as a function of the MBC of the tetrameric peptide” value was determined as 1 x MBC in series [1] (S. aureus sensitive strain, from concentrations in μg/mL); 1 x MBC in [2] (K. pneumoniae sensitive strain, from concentrations in μg/mL); 1 x MBC in series [8] (S. aureus resistant strain, from concentrations in μg/mL); 1 x MBC in series [3] (K. pneumoniae resistant strain, from concentrations in μg/mL).

In [4] (ATCC 25923, 24 h), `CSCC[C@H](NC(=O)[C@H](CCCNC(=N)N)NC(=O)[C@H](Cc1c[nH]c2ccccc12)NC(=O)[C@H](CCC(N)=O)NC(=O)[C@H](Cc1c[nH]c2ccccc12)NC(=O)[C@H](CCCNC(=N)N)NC(=O)[C@H](CCCNC(=N)N)NC(=O)[C@H](CS)NC(=O)[C@H](CCCCN)NC(=O)[C@@H](N)Cc1ccccc1)C(=O)N[C@@H](CCCCN)C(=O)N[C@@H](CCCCN)C(=O)N[C@@H](CC(C)C)C(=O)NCC(=O)N[C@@H](C)C(N)=O` [LfcinB reference, reference compound] came in with a minimal inhibitory concentration (MIC) above 200 µM. The minimum bactericidal concentration (MBC) is above 200 µM in series [1] (ATCC 25923, 18 h); above 200 µM in series [2] (ATCC 13883, 18 h); 100 µM in series [8] (ATCC 33591, 18 h); above 200 µM in series [3] (ATCC 700603, 18 h).
